Assay results from article PMC9420947, “^131I-Caerin 1.1 and ^131I-Caerin 1.9 for the treatment of non-small-cell lung cancer” (Frontiers in Oncology, 2022).
Like-named read-outs stand apart in the source and are kept apart here. No end group written: not given here.

Experiments:
A549 cells [1] = assay: Cell uptake; assay type: cell-based, human; conditions: 24 hours, serum-free medium, 1.85 ×10^5Bq per well, γ count, triplicate, mean ± SD
Procedure: A549 cells were seeded in four 24-well plates (Coring, USA) at 5×10^4 cells (500 µl) per well. The experiment was done in triplicate and included a positive-control well. After the cells were cultured in an incubator for 24 hours, the supernatant was discarded, 0.5 ml of serum-free medium was added to each well, and ^131I-Caerin 1.1 or ^131I-Caerin 1.9 and Na-^131I solution (1.85 ×10^5Bq or 2 µl per well) were added. After the cells were incubated for 2, 4, 6, or 24 hours, the cells were removed from the incubator. For the positive control, the supernatant was collected in a tube. For the experimental groups, the supernatant was discarded, and the cells were washed twice with PBS. Next, 200 µl of trypsin (GIBCO, USA) was added to each well. After digestion, the cells were washed three times with PBS and then collected in a tube to measure their radioactivity count. GraphPad Prism v9.3.0 was used to calculate the drug binding rate.

[2] = Body weight of A549 tumor-bearing nude mice; assay type: in vivo, BALB/c female nude mice; conditions: intratumoral injection every other day, four injections, 8 μg peptide and/or 7.4 ×10^6 Bq, 3 days after the last injection, four mice per group
From the text: (§1) Specific pathogen–free (SPF) 4-6-week-old (adult) BALB/c female nude mice were purchased from Guangdong Medical Laboratory Animal Center. The animals were housed at the Animal Resource Center (First Affiliated Hospital of Guangdong Pharmaceutical University) under SPF conditions. No animal was sick or died during the study. Nude mice were sacrificed by cervical dislocation in accordance with the Animal Management Measures of the Ministry of Health of the People’s Republic of China (Document no.55, 2001). All experiments were approved and were done in accordance with the guidelines of the Animal Experiment Ethics Committee of the First Affiliated Hospital of Guangdong Pharmaceutical University (Ethics approval number: FAHGPU20160316).
(§2) A total of 100 µl of A549 cells (1×10^6 cells) suspended in PBS were inoculated subcutaneously in the axillary area of nude mice to establish a subcutaneous xenograft model. Once the tumor was 3 to 4 mm long, the nude mice were used in the following experiment. A digital caliper (Mitutoyo, Japan, CD-15APX) was used to monitor tumor size every other day. Tumor volume was calculated according to the formula: volume = width^2 × length/2.
(§3) To reduce the thyroid uptake of ^131I, all nude mice were fed 0.1% potassium iodide (Shanghai Macklin Biochemical Co., Ltd., China) for 3 days to block the thyroid before the experiment. […]

[3] = test system: A549 xenograft NSCLC tumors; assay: A549 subcutaneous xenograft in nude mice, tumor growth; assay type: in vivo, BALB/c female nude mice; conditions: intratumoral injection every other day, four injections, 8 μg peptide and/or 7.4 ×10^6 Bq, 3 days after the last injection, four mice per group
From the text: as §1, §2, §3

A549 cells [4] = assay: CCK-8 cell proliferation and cytotoxicity; assay type: cell-based, human; conditions: CCK-8, 20,000 KBq/ml, 24 hours, triplicate, mean ± SD
Procedure: A549 cells were seeded in two 96-well plates at 5×10^3 cells (100 µl) per well and cultured for 24 hours at 5% CO2 and 37°C. The ^131I-Caerin 1.1, ^131I-Caerin 1.9, and Na-^131I solutions were added to a final concentration of 2500, 5000, 10,000, or 20,000 KBq/ml. In the corresponding plates for Caerin 1.1 and Caerin 1.9, the drug concentration was 3.29, 6.95, 14.29, or 30.72 µg/ml. The experiment was done in triplicate and included three control (drug-free) groups. The cells were cultured for another 24 hours. Next, 10 µl of CCK-8 solution (DOJINDO, Japan) was added to each well, and then the cells were cultured in the dark for 4-6 hours. The absorbance at 450 nm was measured in an enzyme-linked immunosorbent assay plate reader, and GraphPad Prism v9.3.0 was used to calculate the cell survival rate.

A549 cells [5] = assay: Cell elution (retention); assay type: cell-based, human; conditions: 24 h incubation, wash, then 24 hours in serum-free medium, 1.85 ×10^5Bq per well, γ count, triplicate, mean ± SD
Procedure: A549 cells were seeded in four 24-well plates at 5×10^4 cells (500 µl) per well and cultured for 24 hours. The experiment was done in triplicate and included a positive-control well. The supernatant was discarded, 0.5 ml of serum-free medium was added to each well, and then ^131I-Caerin 1.1, ^131I-Caerin 1.9, or free ^131I was added (1.85 ×10^5Bq or 2 µl per well). After incubation for 24 hours, the supernatant was discarded, the cells were washed twice with PBS, 0.5 ml of serum-free medium was added to each well, and the cells were incubated for another 2, 4, 6, or 24 hours. For the positive control, the supernatant was collected in a tube. For the experimental groups, the supernatant was discarded, the cells were washed twice with PBS, and 200 µl of trypsin was added to each well. After digestion, the cells were washed three times with PBS and then collected in a tube to measure the radioactivity count. GraphPad Prism v9.3.0 was used to calculate the drug retention rate.

A549 cells [6] = assay type: cell-based, human; conditions: MTT; for survival rate of A549 cells: overnight, triplicate, mean ± SD
Procedure: The NSCLC cell line A549 was from the Stem Cell Bank of the Chinese Academy of Sciences. The medium of A549 cells contained 89% RPMI medium 1640 (GIBCO, USA), 10% heat-inactivated fetal bovine serum (Coring, USA), and 1% penicillin-streptomycin solution (GIBCO, USA). The cells were incubated in an incubator (Thermo, USA) at 37°C in 5% CO2.
A total of 500 mg of 3-(4,5-dimethylthiazol-2-yl)-2,5-diphenyl tetrazolium bromide (MTT) powder (Sigma-Aldrich, USA) was dissolved in 100 ml of PBS to a final concentration of 5 mg/ml (0.5% MTT). The solution was stored in the dark at -20°C. A549 cells in the exponential growth phase were seeded in 96-well plates (Coring, USA) at 5×10^3 cells (100 µl) per well and then incubated at 37°C in 5% CO2 for 24 hours. Different concentrations of P3, Caerin 1.1, and Caerin 1.9 were added to the 96-well plates to reach final concentrations of 1, 5, 10, 15, 20, 25, 30, and 40 μg/ml. The experiment was done in triplicate and included control wells. The cells were cultured overnight. Once the drug’s effect was visible under the microscope, 10 µl of MTT solution was added to each well, and the cells were cultured for another 4 hours. Next, the supernatant was carefully aspirated, 150 µl of dimethyl sulfoxide solution (Sigma-Aldrich, USA) was added to each well, and the 96-well plates were placed on a shaker at low speed for 10 minutes. The absorbance at 570 nm was measured in an enzyme-linked immunosorbent assay plate reader (Thermo Scientific, USA). GraphPad Prism v9.3.0 was used calculate the half-maximal inhibitory concentration (IC50) of each drug and the survival rate (%).

Row | Compound | uptake rate by A549 cells (A549 cells [1]) [%] | body weight at the time of sacrifice [2] [g] | tumor volume at the time of sacrifice [3] [mm^3] | tumor weight after sacrifice [3] [g] | survival rate of A549 cells (A549 cells [4]) | binding rate after elution (A549 cells [5]) | survival rate of A549 cells (A549 cells [6]; 10 μg/ml) | survival rate of A549 cells (A549 cells [6]; 15 μg/ml) | survival rate of A549 cells (A549 cells [6]; 20 μg/ml) | survival rate of A549 cells (A549 cells [6]; 25 μg/ml) | IC50 on A549 cells (A549 cells [6]; 1-40 μg/ml, GraphPad Prism) [µg/mL]
1 | [131I-].[Na+] [Na-^131I, reference compound] | 0.67 ± 0.08 | 17.99 ± 0.50 | 186.30 ± 19.69 | 0.147 ± 0.009 | 71.56% ± 9.83% | 4.97% ± 0.59% |  |  |  |  | 
2 | GLFGVLGSIAKHVLPHVVPVIAEKL-NH2 [Caerin 1.9] |  |  |  |  |  |  | 74.20% ± 3.57% | 72.65% ± 0.76% | 36.43% ± 4.85% | 20.43% ± 1.92% | 17.46
